Assay results taken from US8110217B2, “Sphingomyelin liposomes for the treatment of hyperactive bladder disorders” (priority 2001, dated 2012).

Test system: chemically induced bladder hyperactivity
Assay: Cystometrogram (CMG): liposomes of various lipids infused in the presence of KCl after protamine sulfate (Examples 1-4)
Type: in vivo, female Sprague-Dawley rats
Excerpt: Bladder reflex activity in thirty-four (34) female Sprague-Dawley rats (200-250 g) was studied by cystometry performed under anesthesia with urethane (1.2 g/kg) administered by subcutaneous injection. Body temperature was maintained in the physiologic range using a heating lamp. A transurethral bladder catheter (PE-50) connected by a three-way stopcock to a pressure transducer and to a syringe pump was used to record intravesical pressure and to infuse solutions into the bladder. A control cystometrogram (CMG) was performed by slowly filling the bladder with saline at a rate of 0.04 ml/min to elicit repetitive voiding. The bladder contraction frequency of the reflex bladder contractions were recorded. After performing control CMGs with saline infusion for 3 hours, protamine sulfate (PS) (Sigma Chemical; 10 mg/ml) was infused at a rate of 0.04 ml/min for 1 hour to increase epithelial permeability followed by infusion of the irritant KCl (500 mM) for 1 hour. Subsequently, liposomes made from lipids of various compositions then were infused in the presence of a high concentration of KCl for 2 hours.
The effect of charge on the lipid headgroup in reducing bladder activity in three animal groups (n=5) was determined. Neutrally charged liposomes prepared with L-α-PC (a zwitterionic lipid egg PC) were compared against liposomes having either a positively or negatively charged polar headgroup, namely, 1,2-dioleoyl-3-trimethylammonium-propane (DOTAP) and 1-α-phosphatidylserine (POPS), respectively.
Liposomes were prepared as described by Kirby and Gregoriadis (Kirby, C. J. and Gregoriadia, G., “A simple procedure for preparing liposomes capable of high encapsulation efficiency under mild conditions,” Liposome Technology, G. Gregnoriadis, Ed., C.R.C. Press, Inc., Boca Raton, Fla., 1984, Vol. 1, p. 20, 1984). Briefly, liposomes were constructed as a 2:1 molar ratio of L-α-phosphatidylcholine and cholesterol (Sigma Chemical Co., St. Louis, Mo.) to a final lipid concentration of 1-2 mg/ml in saline. Lipids in chloroform were dried down together in the proper ratio under nitrogen. The residues were reconstituted as liposomes in saline or 500 mM KCl by intense sonication. This lipid composition produced liposomes with no net charge.
Statistical analyses were performed using Student's t test for paired or unpaired data, where applicable. A P-value less than 0.05 was considered significant. All data were expressed as means±S.E. (standard error).
Neutrally charged liposomes prepared with sphingomyelin were compared against liposomes prepared from dihydrosphingomyelin and two pure synthetic lipids: 1,2-distearoyl-sn-glycero-3-phosphocholine (DSPC) and 1,-oleoyl-2-stearoyl-sn-glycero-3-phosphocholine (OSPC).
The methodology of this investigation is the same as described above in Example 1 with the exception that the preparation of liposomes was modified from Example 1. Briefly, liposomes were constructed as a 2:1 molar ratio of sphingomyelin and cholesterol (Sigma Chemical Co., St. Louis, Mo.) to a final lipid concentration of 1-2 mg/ml in saline. Lipids in chloroform were dried down together in the proper ratio under nitrogen. The residues were reconstituted as liposomes in saline or 500 mM KCl by intense sonication. This lipid composition produced sphingomyelin liposomes with no net charge.
Sphingomyelin devoid of its phosphorylcholine head group generates the molecule ceramide, a well known lipid second messenger which mediates a wide range of cellular responses to external stimuli, and also is used for the biosynthesis of sphingomyelin and glycosphingolipids. Because ceramide cannot form stable liposomes by itself, its effect on bladder hyperactivity was tested by including it at 1 mol % in an inert lipid, namely, 1,2-distearoyl-sn-glycero-3-phosphocholine (DSPC).
The methodology of this investigation is the same as described above in Example 1 with the exception that the preparation of liposomes was modified from Example 1. […]

[1] = included at 1 mol % in DSPC liposomes

Compound	effect on efficacy of DSPC liposomes in reducing bladder contraction frequency [1]	effect on efficacy of DSPC liposomes in reducing bladder contraction frequency (included in DSPC at 1-5 mol % (data not shown))	effect on efficacy of DSPC liposomes in reducing bladder contraction frequency (DSPC/cerebroside and cholesterol liposomes)
CCCCCCCCCCCCC/C=C/[C@@H](O)[C@@H](N)COP(=O)(O)O [sphingosine 1-phosphate]	did not show a similar beneficial effect	equally effective as ceramide and sphingosine	–
cerebroside	–	–	significantly increased the efficacy of DSPC
CCCCCCCCCCCCC/C=C/[C@@H](O)[C@@H](N)CO [sphingosine]	had a similar effect	–	–
